In article PMC9329436, “Optimization of the 4-anilinoquin(az)oline scaffold as epidermal growth factor receptor (EGFR) inhibitors for chordoma utilizing a toxicology profiling assay platform” (Scientific Reports, 2022):
Like-named read-outs stand apart in the source and are kept apart here.

What was measured:
Type in all cases: biochemical
[1] = target: 320 wild-type protein kinases (Homo sapiens, UniProt P08631); conditions: HCK, singlicate
Text: (§1) Table S4. Profiling of two compounds at two concentrations against 320 wild-type protein kinases; singlicate measurement; Residual activities (% of control).

[2] = target: 320 wild-type protein kinases (Homo sapiens, UniProt P22607); conditions: singlicate
Text: as §1

[3] = target: 320 wild-type protein kinases (Homo sapiens, UniProt P48729); conditions: singlicate
Text: as §1

[4] = target: 320 wild-type protein kinases (Homo sapiens, UniProt Q13627); conditions: DYRK1A, singlicate
Text: as §1

[5] = target: 320 wild-type protein kinases (Homo sapiens, UniProt Q14289); conditions: kinase PYK2, singlicate
Text: as §1

[6] = target: 320 wild-type protein kinases (Homo sapiens, UniProt Q8IU85); conditions: CAMK1D, singlicate
Text: as §1

[7] = target: T1, 320 wild-type protein kinases (Homo sapiens, UniProt Q8TD19); conditions: singlicate
T1 sequence (Q8TD19 1-979): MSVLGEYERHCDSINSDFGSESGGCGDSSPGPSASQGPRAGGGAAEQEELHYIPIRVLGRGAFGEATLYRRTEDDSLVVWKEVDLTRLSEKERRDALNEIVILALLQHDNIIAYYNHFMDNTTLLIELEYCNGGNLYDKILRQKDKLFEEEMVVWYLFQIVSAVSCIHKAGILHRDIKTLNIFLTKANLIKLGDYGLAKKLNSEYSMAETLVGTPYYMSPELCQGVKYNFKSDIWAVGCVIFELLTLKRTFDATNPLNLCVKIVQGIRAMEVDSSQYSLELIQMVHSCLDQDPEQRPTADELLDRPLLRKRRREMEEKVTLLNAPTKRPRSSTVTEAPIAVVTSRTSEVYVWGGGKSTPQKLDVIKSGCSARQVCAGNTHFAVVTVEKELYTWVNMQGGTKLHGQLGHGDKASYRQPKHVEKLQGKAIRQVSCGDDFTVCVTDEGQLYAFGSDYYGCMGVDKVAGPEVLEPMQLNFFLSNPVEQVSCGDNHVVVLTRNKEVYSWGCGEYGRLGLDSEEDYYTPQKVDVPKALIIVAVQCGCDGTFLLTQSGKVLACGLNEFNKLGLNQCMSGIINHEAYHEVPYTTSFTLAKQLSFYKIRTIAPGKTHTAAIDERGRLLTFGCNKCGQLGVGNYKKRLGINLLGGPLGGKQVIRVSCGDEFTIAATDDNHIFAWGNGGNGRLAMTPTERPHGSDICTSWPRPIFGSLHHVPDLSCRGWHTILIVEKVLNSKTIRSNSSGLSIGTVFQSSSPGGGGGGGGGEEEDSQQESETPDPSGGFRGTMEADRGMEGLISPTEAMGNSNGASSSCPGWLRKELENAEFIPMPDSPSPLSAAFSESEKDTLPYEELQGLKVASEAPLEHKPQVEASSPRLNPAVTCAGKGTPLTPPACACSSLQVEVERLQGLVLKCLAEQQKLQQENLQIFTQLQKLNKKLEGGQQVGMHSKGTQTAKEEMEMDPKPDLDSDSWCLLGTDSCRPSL
Text: as §1

[8] = target: T2, 320 wild-type protein kinases (Homo sapiens, UniProt Q9BXA7); conditions: kinase TSSK1, singlicate
T2 sequence (Q9BXA7 1-367): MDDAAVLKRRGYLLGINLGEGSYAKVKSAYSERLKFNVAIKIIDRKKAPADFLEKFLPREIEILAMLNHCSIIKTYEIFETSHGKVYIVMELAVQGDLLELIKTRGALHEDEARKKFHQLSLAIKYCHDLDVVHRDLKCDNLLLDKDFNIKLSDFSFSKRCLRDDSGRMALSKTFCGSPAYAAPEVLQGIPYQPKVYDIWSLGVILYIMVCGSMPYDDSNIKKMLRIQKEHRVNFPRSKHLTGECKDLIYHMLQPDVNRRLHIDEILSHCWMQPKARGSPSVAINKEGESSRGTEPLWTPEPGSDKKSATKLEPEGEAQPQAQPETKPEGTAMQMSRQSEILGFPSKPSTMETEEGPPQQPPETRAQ
Text: as §1

[9] = target: 320 wild-type protein kinases (Homo sapiens, UniProt Q9HAZ1); conditions: singlicate
Text: as §1

[10] = target: 320 wild-type protein kinases (Homo sapiens, UniProt Q9UM73); conditions: ALK (GST-HIS-tag), singlicate
Text: as §1

[11] = target: T3, 320 wild-type protein kinases (Homo sapiens, UniProt Q9Y2U5); conditions: singlicate
T3 sequence (Q9Y2U5 1-619): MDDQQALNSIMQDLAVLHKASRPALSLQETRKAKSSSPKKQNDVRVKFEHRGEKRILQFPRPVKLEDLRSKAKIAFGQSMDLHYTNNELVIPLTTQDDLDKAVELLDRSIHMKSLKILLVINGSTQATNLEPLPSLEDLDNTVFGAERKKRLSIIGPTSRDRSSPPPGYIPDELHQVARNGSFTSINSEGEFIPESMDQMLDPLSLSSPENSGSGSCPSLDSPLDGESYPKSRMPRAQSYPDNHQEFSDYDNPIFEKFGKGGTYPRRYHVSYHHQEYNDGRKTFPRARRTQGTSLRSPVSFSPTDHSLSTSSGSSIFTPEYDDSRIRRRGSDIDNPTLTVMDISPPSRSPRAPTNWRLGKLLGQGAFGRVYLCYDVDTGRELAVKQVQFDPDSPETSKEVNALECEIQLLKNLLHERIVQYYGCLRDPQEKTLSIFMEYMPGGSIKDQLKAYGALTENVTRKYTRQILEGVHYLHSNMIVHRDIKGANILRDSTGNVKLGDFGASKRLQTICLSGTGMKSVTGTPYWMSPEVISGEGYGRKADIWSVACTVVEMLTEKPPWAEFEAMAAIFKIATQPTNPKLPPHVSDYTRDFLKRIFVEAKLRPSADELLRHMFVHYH
Text: as §1

320 wild-type protein kinases (Homo sapiens, UniProt Q9HAZ1), sequence (Q9HAZ1 whole entry): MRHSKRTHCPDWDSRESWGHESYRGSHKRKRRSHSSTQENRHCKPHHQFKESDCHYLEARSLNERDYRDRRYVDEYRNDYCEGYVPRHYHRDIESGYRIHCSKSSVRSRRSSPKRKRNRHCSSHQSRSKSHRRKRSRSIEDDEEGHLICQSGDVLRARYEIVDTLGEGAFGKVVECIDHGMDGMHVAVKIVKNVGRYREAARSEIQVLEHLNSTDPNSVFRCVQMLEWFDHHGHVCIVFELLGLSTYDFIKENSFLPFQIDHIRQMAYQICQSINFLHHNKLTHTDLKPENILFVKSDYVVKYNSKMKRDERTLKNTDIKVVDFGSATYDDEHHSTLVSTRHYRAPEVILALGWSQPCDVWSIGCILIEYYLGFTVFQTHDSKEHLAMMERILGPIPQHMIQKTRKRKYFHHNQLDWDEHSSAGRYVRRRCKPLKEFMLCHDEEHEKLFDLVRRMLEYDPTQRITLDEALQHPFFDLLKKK
320 wild-type protein kinases (Homo sapiens, UniProt P48729), sequence (P48729 whole entry): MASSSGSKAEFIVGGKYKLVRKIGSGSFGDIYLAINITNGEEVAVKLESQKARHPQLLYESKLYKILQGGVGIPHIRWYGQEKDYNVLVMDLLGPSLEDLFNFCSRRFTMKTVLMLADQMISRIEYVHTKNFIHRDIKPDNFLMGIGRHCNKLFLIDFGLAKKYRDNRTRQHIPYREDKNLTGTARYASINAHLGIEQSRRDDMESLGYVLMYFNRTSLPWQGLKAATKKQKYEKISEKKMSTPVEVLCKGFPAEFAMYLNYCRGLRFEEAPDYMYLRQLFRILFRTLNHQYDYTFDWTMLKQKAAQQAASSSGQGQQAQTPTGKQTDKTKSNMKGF
320 wild-type protein kinases (Homo sapiens, UniProt Q14289), sequence (Q14289 whole entry): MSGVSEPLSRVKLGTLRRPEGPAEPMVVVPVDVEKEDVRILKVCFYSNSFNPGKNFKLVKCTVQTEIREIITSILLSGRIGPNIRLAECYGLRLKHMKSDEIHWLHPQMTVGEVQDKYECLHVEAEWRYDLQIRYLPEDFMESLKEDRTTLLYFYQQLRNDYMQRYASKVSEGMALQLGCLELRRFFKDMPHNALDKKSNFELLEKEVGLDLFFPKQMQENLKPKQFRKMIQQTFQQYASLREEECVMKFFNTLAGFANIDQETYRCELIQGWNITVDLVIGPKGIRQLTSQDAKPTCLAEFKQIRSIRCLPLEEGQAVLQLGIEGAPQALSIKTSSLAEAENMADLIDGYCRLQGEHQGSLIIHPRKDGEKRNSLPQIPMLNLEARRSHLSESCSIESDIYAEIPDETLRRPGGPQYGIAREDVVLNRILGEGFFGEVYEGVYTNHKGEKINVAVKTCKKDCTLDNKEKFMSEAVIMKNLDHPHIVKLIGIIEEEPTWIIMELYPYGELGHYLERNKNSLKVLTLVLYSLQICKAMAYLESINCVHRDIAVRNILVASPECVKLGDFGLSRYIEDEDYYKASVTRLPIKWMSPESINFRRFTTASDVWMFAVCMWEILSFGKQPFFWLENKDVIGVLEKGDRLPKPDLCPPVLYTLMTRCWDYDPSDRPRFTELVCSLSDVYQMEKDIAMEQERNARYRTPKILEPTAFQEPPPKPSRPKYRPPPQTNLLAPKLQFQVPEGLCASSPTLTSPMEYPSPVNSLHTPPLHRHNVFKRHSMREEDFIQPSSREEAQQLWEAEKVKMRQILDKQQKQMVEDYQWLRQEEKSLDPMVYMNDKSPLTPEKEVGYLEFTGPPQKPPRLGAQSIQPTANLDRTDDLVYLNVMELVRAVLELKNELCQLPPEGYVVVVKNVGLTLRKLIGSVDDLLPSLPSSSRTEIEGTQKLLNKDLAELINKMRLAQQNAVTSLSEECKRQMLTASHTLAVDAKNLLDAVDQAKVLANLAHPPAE
320 wild-type protein kinases (Homo sapiens, UniProt P08631), sequence (P08631 whole entry): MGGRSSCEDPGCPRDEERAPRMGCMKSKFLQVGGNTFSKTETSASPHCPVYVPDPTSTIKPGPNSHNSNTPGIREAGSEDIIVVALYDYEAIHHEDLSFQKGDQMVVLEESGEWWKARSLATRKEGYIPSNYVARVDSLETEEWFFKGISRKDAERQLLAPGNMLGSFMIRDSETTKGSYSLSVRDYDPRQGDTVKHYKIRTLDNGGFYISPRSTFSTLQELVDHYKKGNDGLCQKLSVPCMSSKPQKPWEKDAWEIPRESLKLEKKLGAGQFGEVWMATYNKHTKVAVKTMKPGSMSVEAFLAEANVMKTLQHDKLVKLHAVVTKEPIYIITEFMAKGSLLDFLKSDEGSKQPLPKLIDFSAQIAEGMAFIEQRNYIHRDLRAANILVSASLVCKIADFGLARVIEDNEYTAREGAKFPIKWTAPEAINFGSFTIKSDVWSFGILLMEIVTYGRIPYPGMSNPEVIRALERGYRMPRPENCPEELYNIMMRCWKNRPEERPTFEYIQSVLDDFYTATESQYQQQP
320 wild-type protein kinases (Homo sapiens, UniProt P22607), sequence (P22607 23-806): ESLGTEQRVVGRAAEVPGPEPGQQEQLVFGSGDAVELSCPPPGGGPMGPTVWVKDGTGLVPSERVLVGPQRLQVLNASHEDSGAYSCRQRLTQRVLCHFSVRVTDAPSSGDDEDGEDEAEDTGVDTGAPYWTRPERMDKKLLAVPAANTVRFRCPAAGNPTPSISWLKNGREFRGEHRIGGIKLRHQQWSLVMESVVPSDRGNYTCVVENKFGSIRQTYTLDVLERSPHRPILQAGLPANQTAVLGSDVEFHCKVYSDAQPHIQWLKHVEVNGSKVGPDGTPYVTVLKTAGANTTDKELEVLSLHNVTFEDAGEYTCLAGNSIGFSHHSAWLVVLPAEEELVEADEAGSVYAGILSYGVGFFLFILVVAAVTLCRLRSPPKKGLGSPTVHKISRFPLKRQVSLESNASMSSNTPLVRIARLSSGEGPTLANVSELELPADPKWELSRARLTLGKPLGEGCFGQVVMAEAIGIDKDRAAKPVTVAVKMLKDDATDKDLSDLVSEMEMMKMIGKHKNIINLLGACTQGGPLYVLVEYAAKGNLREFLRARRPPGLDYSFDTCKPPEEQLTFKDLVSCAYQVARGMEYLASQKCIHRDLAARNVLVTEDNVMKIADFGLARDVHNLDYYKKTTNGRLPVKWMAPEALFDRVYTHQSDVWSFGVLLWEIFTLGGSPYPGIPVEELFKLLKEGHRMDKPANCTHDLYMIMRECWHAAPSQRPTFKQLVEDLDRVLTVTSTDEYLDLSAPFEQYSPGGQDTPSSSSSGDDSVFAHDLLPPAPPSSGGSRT
320 wild-type protein kinases (Homo sapiens, UniProt Q9UM73), sequence (Q9UM73 19-1620): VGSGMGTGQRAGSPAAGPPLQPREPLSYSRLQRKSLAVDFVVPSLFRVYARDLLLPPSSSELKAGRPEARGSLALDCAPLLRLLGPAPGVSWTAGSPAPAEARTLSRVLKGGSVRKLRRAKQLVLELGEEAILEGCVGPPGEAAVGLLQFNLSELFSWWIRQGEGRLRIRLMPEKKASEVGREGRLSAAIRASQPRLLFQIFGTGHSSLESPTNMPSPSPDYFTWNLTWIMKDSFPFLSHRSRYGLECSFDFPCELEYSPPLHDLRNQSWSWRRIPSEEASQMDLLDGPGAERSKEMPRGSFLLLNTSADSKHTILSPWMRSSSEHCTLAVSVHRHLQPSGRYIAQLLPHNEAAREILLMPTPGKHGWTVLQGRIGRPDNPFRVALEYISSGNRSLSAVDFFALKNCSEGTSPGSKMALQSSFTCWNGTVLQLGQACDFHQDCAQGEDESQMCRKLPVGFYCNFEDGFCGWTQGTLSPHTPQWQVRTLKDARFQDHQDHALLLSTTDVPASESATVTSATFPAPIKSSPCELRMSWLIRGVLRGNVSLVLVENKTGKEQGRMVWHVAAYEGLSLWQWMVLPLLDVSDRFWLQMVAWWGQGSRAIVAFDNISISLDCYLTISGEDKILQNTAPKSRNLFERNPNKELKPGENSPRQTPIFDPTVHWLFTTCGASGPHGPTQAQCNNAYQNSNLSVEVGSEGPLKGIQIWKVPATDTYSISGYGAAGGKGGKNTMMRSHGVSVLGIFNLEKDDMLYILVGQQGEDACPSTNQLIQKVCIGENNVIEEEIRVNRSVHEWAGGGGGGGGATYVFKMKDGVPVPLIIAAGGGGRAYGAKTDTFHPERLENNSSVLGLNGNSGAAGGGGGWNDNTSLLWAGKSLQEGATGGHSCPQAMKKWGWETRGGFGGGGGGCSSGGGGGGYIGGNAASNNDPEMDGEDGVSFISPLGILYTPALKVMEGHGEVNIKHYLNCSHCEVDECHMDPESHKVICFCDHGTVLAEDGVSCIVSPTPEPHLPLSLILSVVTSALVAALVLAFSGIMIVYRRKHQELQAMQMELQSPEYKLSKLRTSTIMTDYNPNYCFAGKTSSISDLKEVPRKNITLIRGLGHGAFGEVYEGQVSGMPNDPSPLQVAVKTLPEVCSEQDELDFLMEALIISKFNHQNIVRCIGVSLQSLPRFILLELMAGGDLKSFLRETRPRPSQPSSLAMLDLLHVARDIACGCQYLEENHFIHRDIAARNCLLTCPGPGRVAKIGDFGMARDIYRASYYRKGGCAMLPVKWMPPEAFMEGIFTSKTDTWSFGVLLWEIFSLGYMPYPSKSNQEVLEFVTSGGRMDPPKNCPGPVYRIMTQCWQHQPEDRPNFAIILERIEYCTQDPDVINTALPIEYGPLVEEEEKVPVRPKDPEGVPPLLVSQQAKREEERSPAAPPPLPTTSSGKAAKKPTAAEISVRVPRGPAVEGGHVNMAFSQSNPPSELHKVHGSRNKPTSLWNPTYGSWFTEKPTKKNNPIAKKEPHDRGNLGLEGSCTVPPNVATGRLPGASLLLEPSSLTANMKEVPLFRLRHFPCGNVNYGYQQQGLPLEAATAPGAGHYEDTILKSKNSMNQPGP

C#Cc1cc(Nc2ncnc3cc(I)ccc23)ccc1Cl [Compound 41]
Residual activity ([1]; 1.0E-06 M): 90 % of control
Residual activity ([1]; 1.0E-07 M): 110 % of control
Residual activity ([2]; FGF-R3, 1.0E-06 M): 93 % of control
Residual activity ([2]; FGF-R3, 1.0E-07 M): 99 % of control
Residual activity ([3]; CK1-alpha1, 1.0E-06 M): 99 % of control
Residual activity ([3]; CK1-alpha1, 1.0E-07 M): 104 % of control
Residual activity ([4]; 1.0E-06 M): 75 % of control
Residual activity ([4]; 1.0E-07 M): 84 % of control
Residual activity, PYK2 ([5]; assay conc. 1.0E-06 M): 97 % of control
Residual activity, PYK2 ([5]; assay conc. 1.0E-07 M): 103 % of control
Residual activity ([6]; 1.0E-06 M): 77 % of control
Residual activity ([6]; 1.0E-07 M): 86 % of control
Residual activity ([7]; NEK9, 1.0E-06 M): 115 % of control
Residual activity ([7]; NEK9, 1.0E-07 M): 134 % of control
Residual activity, TSSK1 ([8]; assay conc. 1.0E-06 M): 105 % of control
Residual activity, TSSK1 ([8]; assay conc. 1.0E-07 M): 142 % of control
Residual activity ([9]; CLK4, 1.0E-06 M): 112 % of control
Residual activity ([9]; CLK4, 1.0E-07 M): 111 % of control
Residual activity ([10]; 1.0E-06 M): 93 % of control
Residual activity ([10]; 1.0E-07 M): 102 % of control
Residual activity ([11]; MEKK2, 1.0E-06 M): 93 % of control
Residual activity ([11]; MEKK2, 1.0E-07 M): 112 % of control

C#Cc1cc(Nc2ncnc3cc(OC)c(OC)cc23)ccc1Cl [Compound 45]
Residual activity ([1]; 1.0E-06 M): 72 % of control
Residual activity ([1]; 1.0E-07 M): 102 % of control
Residual activity ([2]; FGF-R3, 1.0E-06 M): 70 % of control
Residual activity ([2]; FGF-R3, 1.0E-07 M): 79 % of control
Residual activity ([3]; CK1-alpha1, 1.0E-06 M): 95 % of control
Residual activity ([3]; CK1-alpha1, 1.0E-07 M): 98 % of control
Residual activity ([4]; 1.0E-06 M): 91 % of control
Residual activity ([4]; 1.0E-07 M): 85 % of control
Residual activity, PYK2 ([5]; assay conc. 1.0E-06 M): 92 % of control
Residual activity, PYK2 ([5]; assay conc. 1.0E-07 M): 95 % of control
Residual activity ([6]; 1.0E-06 M): 84 % of control
Residual activity ([6]; 1.0E-07 M): 99 % of control
Residual activity ([7]; NEK9, 1.0E-06 M): 91 % of control
Residual activity ([7]; NEK9, 1.0E-07 M): 111 % of control
Residual activity, TSSK1 ([8]; assay conc. 1.0E-06 M): 111 % of control
Residual activity, TSSK1 ([8]; assay conc. 1.0E-07 M): 127 % of control
Residual activity ([9]; CLK4, 1.0E-06 M): 69 % of control
Residual activity ([9]; CLK4, 1.0E-07 M): 100 % of control
Residual activity ([10]; 1.0E-06 M): 63 % of control
Residual activity ([10]; 1.0E-07 M): 102 % of control
Residual activity ([11]; MEKK2, 1.0E-06 M): 107 % of control
Residual activity ([11]; MEKK2, 1.0E-07 M): 120 % of control
